In US20230085307A1, “PYRIDAZINONE COMPOUND AND HERBICIDE” (NISSAN CHEMICAL CORPORATION, priority 2019, published 2023):

Tests used:
barnyard grass [1] = assay: Test Example 3: herbicidal effect by foliage application, Wagner pot (Table 18, symbol H); assay type: in vivo, barnyard grass (Echinochloa crus-galli)
Summary of the method: (§1)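 Plants were sown in alluvial soil held under 0.1–0.5 cm standing water and grown 14 days in a greenhouse at 25–30 °C. An emulsifiable formulation, water-diluted to the set dose, was then sprayed onto the foliage, and effects were scored three weeks later using previously defined criteria.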

Chinese sprangletop = assay: Test Example 3: herbicidal effect by foliage application, Wagner pot (Table 18, symbol D); assay type: in vivo, chinese sprangletop (Leptochloa chinensis)
Summary of the method: as §1

rice flat sedge = assay: Test Example 3: herbicidal effect by foliage application, Wagner pot (Table 18, symbol E); assay type: in vivo, rice flat sedge (Cyperus iria)
Summary of the method: as §1

southern crabgrass [2] = assay: Test Example 4: herbicidal effect by soil treatment (Table 19, symbol F); assay type: in vivo, southern crabgrass (Digitaria ciliaris)
Summary of the method: (§2)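 Soil-surface application: an emulsion agent diluted with water to the predetermined dose is sprayed uniformly over seeds lying under roughly 1.5 cm of sterilized diluvial soil. Boxes stay in a greenhouse at 25° C. to 30° C. Three weeks later, each species is graded on previously defined criteria.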

green foxtail [3] = assay: Test Example 4: herbicidal effect by soil treatment (Table 19, symbol G); assay type: in vivo, green foxtail (Setaria viridis)
Summary of the method: as §2

barnyard grass [4] = assay: Test Example 4: herbicidal effect by soil treatment (Table 19, symbol H); assay type: in vivo, barnyard grass (Echinochloa crus-galli)
Summary of the method: as §2

wild oat [5] = assay: Test Example 4: herbicidal effect by soil treatment (Table 19, symbol I); assay type: in vivo, wild oat (Avena fatua)
Summary of the method: as §2

blackgrass [6] = assay: Test Example 4: herbicidal effect by soil treatment (Table 19, symbol J); assay type: in vivo, blackgrass (Alopecurus myosuroides)
Summary of the method: as §2

Italian ryegrass [7] = assay: Test Example 4: herbicidal effect by soil treatment (Table 19, symbol K); assay type: in vivo, Italian ryegrass (Lolium multiflorum)
Summary of the method: as §2

windgrass [8] = assay: Test Example 4: herbicidal effect by soil treatment (Table 19, symbol L); assay type: in vivo, windgrass (Apera spica-venti)
Summary of the method: as §2

velvetleaf [9] = assay: Test Example 4: herbicidal effect by soil treatment (Table 19, symbol M); assay type: in vivo, velvetleaf (Abutilon theophrasti)
Summary of the method: as §2

redroot pigweed = assay: Test Example 4: herbicidal effect by soil treatment (Table 19, symbol N); assay type: in vivo, redroot pigweed (Amaranthus retroflexus)
Summary of the method: as §2

lambsquarters [10] = assay: Test Example 4: herbicidal effect by soil treatment (Table 19, symbol O); assay type: in vivo, lambsquarters (Chenopodium album)
Summary of the method: as §2

chickweed = assay: Test Example 4: herbicidal effect by soil treatment (Table 19, symbol P); assay type: in vivo, common chickweed (Stellaria media)
Summary of the method: as §2

persian speedwell [11] = assay: Test Example 4: herbicidal effect by soil treatment (Table 19, symbol R); assay type: in vivo, Persian speedwell (Veronica persica)
Summary of the method: as §2

southern crabgrass [12] = assay: Test Example 5: herbicidal effect by foliage application, plastic box (Table 20, symbol F); assay type: in vivo, southern crabgrass (Digitaria ciliaris); details: foliage application, 3 weeks after application
Summary of the method: (§3)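 Sow seeds spot-wise in sterilized diluvial soil; cover with ~1.5 cm soil. Grow 14 days in greenhouse, 25° C. to 30° C. Spray foliage with emulsion diluted to predetermined amount. Rate effect after 3 weeks.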

green foxtail [13] = assay: Test Example 5: herbicidal effect by foliage application, plastic box (Table 20, symbol G); assay type: in vivo, green foxtail (Setaria viridis); details: foliage application, 3 weeks after application
Summary of the method: as §3

barnyard grass [14] = assay: Test Example 5: herbicidal effect by foliage application, plastic box (Table 20, symbol H); assay type: in vivo, barnyard grass (Echinochloa crus-galli); details: foliage application, 3 weeks after application
Summary of the method: as §3

wild oat [15] = assay: Test Example 5: herbicidal effect by foliage application, plastic box (Table 20, symbol I); assay type: in vivo, wild oat (Avena fatua); details: foliage application, 3 weeks after application
Summary of the method: as §3

blackgrass [16] = assay: Test Example 5: herbicidal effect by foliage application, plastic box (Table 20, symbol J); assay type: in vivo, blackgrass (Alopecurus myosuroides); details: foliage application, 3 weeks after application
Summary of the method: as §3

Italian ryegrass [17] = assay: Test Example 5: herbicidal effect by foliage application, plastic box (Table 20, symbol K); assay type: in vivo, Italian ryegrass (Lolium multiflorum); details: foliage application, 3 weeks after application
Summary of the method: as §3

windgrass [18] = assay: Test Example 5: herbicidal effect by foliage application, plastic box (Table 20, symbol L); assay type: in vivo, windgrass (Apera spica-venti); details: foliage application, 3 weeks after application
Summary of the method: as §3

velvetleaf [19] = assay: Test Example 5: herbicidal effect by foliage application, plastic box (Table 20, symbol M); assay type: in vivo, velvetleaf (Abutilon theophrasti); details: foliage application, 3 weeks after application
Summary of the method: as §3

lambsquarters [20] = assay: Test Example 5: herbicidal effect by foliage application, plastic box (Table 20, symbol O); assay type: in vivo, lambsquarters (Chenopodium album); details: foliage application, 3 weeks after application
Summary of the method: as §3

persian speedwell [21] = assay: Test Example 5: herbicidal effect by foliage application, plastic box (Table 20, symbol R); assay type: in vivo, Persian speedwell (Veronica persica); details: foliage application, 3 weeks after application
Summary of the method: as §3

## C=Cc1ccc(-c2sc3ccc(F)cc3c2-c2c(OC(=O)CCC)c(C)nn(C)c2=O)cc1 [2-019]
Barnyard grass [1]; 320 g/ha
  herbicidal effect on H (barnyard grass), rating 0-5: 5 (Herbicidal rate of 90% or more (almost completely withered))
Chinese sprangletop; 320 g/ha
  herbicidal effect on D (Chinese sprangletop), rating 0-5: 3 (Herbicidal rate of 40% or more and less than 70%)
Rice flat sedge; 320 g/ha
  herbicidal effect on E (rice flat sedge), rating 0-5: 4 (Herbicidal rate of 70% or more and less than 90%)
Southern crabgrass [2]; 320 g/ha
  herbicidal effect rating, F: southern crabgrass: 0 (Herbicidal rate of 5% or less (almost no effect))
Green foxtail [3]; 320 g/ha
  herbicidal effect rating, G: green foxtail: 2 (Herbicidal rate of 20% or more and less than 40%)
Barnyard grass [4]; 320 g/ha
  herbicidal effect rating, H: barnyard grass: 0 (Herbicidal rate of 5% or less (almost no effect))
Wild oat [5]; 320 g/ha
  herbicidal effect rating, I: wild oat: 0 (Herbicidal rate of 5% or less (almost no effect))
Blackgrass [6]; 320 g/ha
  herbicidal effect rating, J: blackgrass: 0 (Herbicidal rate of 5% or less (almost no effect))
Italian ryegrass [7]; 320 g/ha
  herbicidal effect rating, K: Italian ryegrass: 5 (Herbicidal rate of 90% or more (almost completely withered))
Windgrass [8]; 320 g/ha
  herbicidal effect rating, L: windgrass: 1 (Herbicidal rate of 5% or more and less than 20%)
Velvetleaf [9]; 320 g/ha
  herbicidal effect rating, M: velvetleaf: 0 (Herbicidal rate of 5% or less (almost no effect))
Redroot pigweed; 320 g/ha
  herbicidal effect rating, N: redroot pigweed: 5 (Herbicidal rate of 90% or more (almost completely withered))
Lambsquarters [10]; 320 g/ha
  herbicidal effect rating, O: lambsquarters: 3 (Herbicidal rate of 40% or more and less than 70%)
chickweed; 320 g/ha
  herbicidal effect rating, P: chickweed: 4 (Herbicidal rate of 70% or more and less than 90%)
Persian speedwell [11]; 320 g/ha
  herbicidal effect rating, R: persian speedwell: 5 (Herbicidal rate of 90% or more (almost completely withered))
Southern crabgrass [12]; 320 g/ha
  effect on southern crabgrass (F): 4 (Herbicidal rate of 70% or more and less than 90%)
Green foxtail [13]; 320 g/ha
  effect on green foxtail (G): 5 (Herbicidal rate of 90% or more (almost completely withered))
Barnyard grass [14]; 320 g/ha
  effect on barnyard grass (H): 5 (Herbicidal rate of 90% or more (almost completely withered))
Wild oat [15]; 320 g/ha
  effect on wild oat (I): 4 (Herbicidal rate of 70% or more and less than 90%)
Blackgrass [16]; 320 g/ha
  effect on blackgrass (J): 0 (Herbicidal rate of 5% or less (almost no effect))
Italian ryegrass [17]; 320 g/ha
  effect on Italian ryegrass (K): 3 (Herbicidal rate of 40% or more and less than 70%)
Windgrass [18]; 320 g/ha
  effect on windgrass (L): 4 (Herbicidal rate of 70% or more and less than 90%)
Velvetleaf [19]; 320 g/ha
  effect on velvetleaf (M): 5 (Herbicidal rate of 90% or more (almost completely withered))
Lambsquarters [20]; 320 g/ha
  effect on lambsquarters (O): 5 (Herbicidal rate of 90% or more (almost completely withered))
Persian speedwell [21]; 320 g/ha
  effect on persian speedwell (R): 5 (Herbicidal rate of 90% or more (almost completely withered))

## COc1nn(C)c(=O)c(-c2c(-c3ccsc3)sc3ccccc23)c1O [1-192]
Barnyard grass [1]; 80 g/ha
  herbicidal effect on H (barnyard grass), rating 0-5: 1 (Herbicidal rate of 5% or more and less than 20%)
Chinese sprangletop; 80 g/ha
  herbicidal effect on D (Chinese sprangletop), rating 0-5: 4 (Herbicidal rate of 70% or more and less than 90%)
Rice flat sedge; 80 g/ha
  herbicidal effect on E (rice flat sedge), rating 0-5: 4 (Herbicidal rate of 70% or more and less than 90%)
Southern crabgrass [2]; AAH 80 g/ha
  F: southern crabgrass, herbicidal effect rating: 0 (Herbicidal rate of 5% or less (almost no effect))
Green foxtail [3]; AAH 80 g/ha
  G: green foxtail, herbicidal effect rating: 0 (Herbicidal rate of 5% or less (almost no effect))
Barnyard grass [4]; AAH 80 g/ha
  H: barnyard grass, herbicidal effect rating: 0 (Herbicidal rate of 5% or less (almost no effect))
Wild oat [5]; AAH 80 g/ha
  I: wild oat, herbicidal effect rating: 0 (Herbicidal rate of 5% or less (almost no effect))
Blackgrass [6]; AAH 80 g/ha
  J: blackgrass, herbicidal effect rating: 0 (Herbicidal rate of 5% or less (almost no effect))
Italian ryegrass [7]; AAH 80 g/ha
  K: Italian ryegrass, herbicidal effect rating: 0 (Herbicidal rate of 5% or less (almost no effect))
Windgrass [8]; AAH 80 g/ha
  L: windgrass, herbicidal effect rating: 0 (Herbicidal rate of 5% or less (almost no effect))
Velvetleaf [9]; AAH 80 g/ha
  M: velvetleaf, herbicidal effect rating: 0 (Herbicidal rate of 5% or less (almost no effect))
Redroot pigweed; AAH 80 g/ha
  N: redroot pigweed, herbicidal effect rating: 0 (Herbicidal rate of 5% or less (almost no effect))
Lambsquarters [10]; AAH 80 g/ha
  O: lambsquarters, herbicidal effect rating: 0 (Herbicidal rate of 5% or less (almost no effect))
chickweed; AAH 80 g/ha
  P: chickweed, herbicidal effect rating: 3 (Herbicidal rate of 40% or more and less than 70%)
Persian speedwell [11]; AAH 80 g/ha
  R: persian speedwell, herbicidal effect rating: 0 (Herbicidal rate of 5% or less (almost no effect))
Southern crabgrass [12]; 80 g/ha
  effect on southern crabgrass (F): 0 (Herbicidal rate of 5% or less (almost no effect))
Green foxtail [13]; 80 g/ha
  effect on green foxtail (G): 0 (Herbicidal rate of 5% or less (almost no effect))
Barnyard grass [14]; 80 g/ha
  effect on barnyard grass (H): 0 (Herbicidal rate of 5% or less (almost no effect))
Wild oat [15]; 80 g/ha
  effect on wild oat (I): 0 (Herbicidal rate of 5% or less (almost no effect))
Blackgrass [16]; 80 g/ha
  effect on blackgrass (J): 0 (Herbicidal rate of 5% or less (almost no effect))
Italian ryegrass [17]; 80 g/ha
  effect on Italian ryegrass (K): 0 (Herbicidal rate of 5% or less (almost no effect))
Windgrass [18]; 80 g/ha
  effect on windgrass (L): 0 (Herbicidal rate of 5% or less (almost no effect))
Velvetleaf [19]; 80 g/ha
  effect on velvetleaf (M): 0 (Herbicidal rate of 5% or less (almost no effect))
Lambsquarters [20]; 80 g/ha
  effect on lambsquarters (O): 0 (Herbicidal rate of 5% or less (almost no effect))
Persian speedwell [21]; 80 g/ha
  effect on persian speedwell (R): 3 (Herbicidal rate of 40% or more and less than 70%)
